From PMC10989073, “Antineoplastic effect of compounds C14 and P8 on TNBC and radioresistant TNBC cells by stabilizing the K-Ras4B^G13D/PDE6δ complex” (Frontiers in Oncology, 2024) come the findings set out here.

Like-named read-outs stand apart in the source and are kept apart here. Where only a bound is given, the exact number is not on record here.

For orientation: IC50 means the concentration that gives 50% inhibition.

The test system of data set [1] is cyclin D1 and GSK3β in MCF-10A cells. Put plainly: Western blotting of cyclin D1 and GSK3β. It is filed as cell-based, human. The conditions noted are these: 3 h, densitometry; for reduction in cyclin D1 protein: C14 and P8 at IC50-24 (Figure 7 legend); for reduction in GSK3β: IC50-24 (Figure 7 legend). On the procedure: (§1) To determine the effect of the C14 and P8 compounds over the protein effectors of K-Ras4B, AKT, and ERK, immunoblotting assays were conducted with specific antibodies. In brief, MCF-10A, MDA-MB-231, and MDA-MB-231RR cells were plated in 100-mm culture dishes until 80% of confluents. Cell adhesion was allowed for 24 h. […] After pre-treatment, cells were stimulated with 100 ng/ml EGF for 10 minutes to promote AKT and ERK activation. Later, the whole-cell extracts were obtained by the lysis of the cells (Cytoskeleton) in the presence of proteases and phosphatase inhibitors. Subsequently, the protein extracts were incubated at 4°C for 40 minutes to be clarified by centrifugation for 10 minutes at 14,000 rpm, at 4°C. The protein concentration of each extract was determined by using the Precision Red Advanced Protein Assay Reagent (Cytoskeleton) Then, approximately 25 μg of protein extract was electrophoresed in 10% sodium dodecyl sulfate–polyacrylamide gel electrophoresis (SDS-PAGE) and transferred to polyvinylidene fluoride (PVDF) membranes (Millipore, Billerica, MA, USA). Blots were probed using the following primary antibodies: Total ERK (Cell Signaling, Danvers, MA, USA), pERK (Cell Signaling), Total AKT (Cell Signaling), pAKT (Cell Signaling), GSK3β (Cell Signaling), and cyclin D1 (Abcam) at a 1:1,000 dilution. As a control, an anti-GAPDH antibody (GeneTex, Irvine, CA, USA) was employed at a 1:100,000 dilution and γ-Tubulin (Invitrogen) 1:5,000. Densitometric analysis of blots was performed using the software ImageJ version 1.45 (National Institutes of Health, Bethesda, […], USA).
Background: A western blot detects proteins with antibodies after separation by electrophoresis.

For data set [2], the system named is MDA-MB-231 cells. Put plainly: XTT cell viability assay and IC50 determination. It counts as cell-based, human. As to conditions: for IC50: XTT, ± SD; for concentration from which a significant cytotoxic effect is seen: compared to vehicle (DMSO). The protocol: In order to evaluate the effect of the C14 and P8 compounds over MCF-10A, MCF-7, MDA-MB-231, and […] cell lines, the IC50 of those molecules was determined. In brief, all the cell lines were seeded at a density of 15,000 cells per well in a 96-well microtiter plate (Corning) in a corresponding growth medium for 24 h. Then, cells were treated with increasing concentrations (from 0 to 200 μM) of the C14 and P8 compounds (Enamine, Kyiv, Ukraine). As a positive control, increased concentrations of cisplatin (from 0 to 200 µM) (Accord, Mexico City, Mexico) were employed. Due to that, dimethyl sulfoxide (DMSO) was used as a vehicle, and its increased concentrations were evaluated as the negative control. All the samples were maintained under growth conditions for 24 h and 48 h. At the end of each time, cell viability was determined using the XTT Cell Proliferation Kit II (Roche Applied Science, Mannheim, Germany) following the manufacturer’s protocol. The absorbance was measured in a spectrophotometer Synergy-HTX (BioTek) at a wavelength of 450–500 nm with a reference wavelength of 650 nm. Cell proliferation was expressed as a percentage of viability [(absorbance of treated cells/absorbance of untreated cells × 100)] ± SD.
For orientation: Tetrazolium dyes change colour on reduction, which living cells bring about.

Data set [3] relates to MDA-MB-231 cells. Put plainly: Cell cycle analysis (propidium iodide, flow cytometry). It is filed as cell-based, human. The conditions noted are these: MDA-MB-231, 3 h at IC50-48H; control 10.0%. On the procedure: (§2) After 3-h incubation, cells were harvested, washed twice in ice-cold PBS, and fixed overnight in 70% ethanol at 4°C. Then, cells were washed in PBS, collected by centrifugation, and stained with staining buffer (PBS with 50 µg/ml propidium iodide and 100 µg/ml RNase A).

A further data set has as its system MDA-MB-231RR cells. The data set is described as above. The conditions noted are these: 3 h at IC50-48H, control 35.6%. It is filed as cell-based, human. The protocol:
as §2

Data set [4] relates to AKT and ERK phosphorylation in MDA-MB-231 cells. In words: Western blotting of pAKT and pERK. It counts as cell-based, human. The conditions noted are these: MDA-MB-231, IC50-48 for 3 h, EGF 100 ng/ml 10 min, densitometry. The protocol:
as §1

The test system of data set [5] is AKT and ERK phosphorylation in MDA-MB-231RR cells. Put plainly: Western blotting of pAKT and pERK. It is filed as cell-based, human. As to conditions: IC50-48 for 3 h, EGF 100 ng/ml 10 min, densitometry. The protocol:
as §1

Data set [6] has as its system AKT and ERK phosphorylation in MCF-10A cells. In words: Western blotting of pAKT and pERK. As to conditions: IC50-48 for 3 h, EGF 100 ng/ml 10 min, densitometry. It counts as cell-based, human. The protocol:
as §1

For data set [7], the system named is MDA-MB-231RR xenograft tumors. Put plainly: Orthotopic breast carcinoma xenograft, tumor growth. It is filed as in vivo, Nu/Nu nude mice. As to conditions: female Nu/Nu mice, i.p. daily for 15 days, 30 mg/kg (methods: P8 10 mg/kg). On the procedure: Female immune-deficient Nu/Nu nude mice at 6–8 weeks of age ([…], Mexico City, Mexico) were maintained in pathogen-free conditions with irradiated chow. The animals were subcutaneously injected in the left 4th mammary gland with 2 × 10^6 MDA-MB-231RR cells per tumor in 0.1 ml of sterile phosphate-buffered saline. When MDA-MB-231RR cells reached palpable tumors (≥100 mm^3), mice were divided randomly into four groups receiving vehicle (10% DMSO, 0.05% carboxy methyl cellulose, and 0.02% in PBS) (n = 5), C14 at 30 mg/kg (n = 5), P8 at 10 mg/kg (n = 5), or cisplatin at 6 mg/kg (n = 5) intraperitoneally injected daily for 15 days. Body weight and tumor volume were measured every third day. Tumor sizes were calculated using the formula [(length × width2)/2] in mm.

In data set [8] the test system is Ras-GTP in MDA-MB-231 cells. Put plainly: Ras activation pull-down assay (Raf-RBD). The conditions noted are these: MDA-MB-231, 3 h pre-treatment at IC50-48H, EGF 100 ng/ml 10 min. It counts as cell-based, human. On the procedure: (§3) Subsequently, the cells were stimulated with epidermal growth factor (EGF) (100 ng/ml) for 10 minutes. Lysates (1 mg/ml) were exposed to Ras GTP-binding protein (Raf-RBD), following the manufacturer’s instructions. Experiments for each cell type and condition were repeated three times.

Data set [9] relates to Ras-GTP in MDA-MB-231RR cells. In words: Ras activation pull-down assay (Raf-RBD). It counts as cell-based, human. The conditions noted are these: 3 h pre-treatment at IC50-48H, EGF 100 ng/ml 10 min. On the procedure:
as §3

`O=C(CN1CCN(c2cccc(Cl)c2)CC1)N[C@@H]1CCOc2ccccc21` [P8, 2-[4-(3-chlorophenyl)piperazin-1-yl]-N-[(4R)-chroman-4-yl]acetamide]: the “reduction in cyclin D1 protein” value in [1] is 40%. In addition, in [1], the “reduction in GSK3β” value was 40%. The IC50 in the data set with MDA-MB-231 cells [2] (Homo sapiens, MDA-MB-231, 24 h, read-out: IC50-24) came to 140 ± 33.5 µM; in the data set with MDA-MB-231 cells [2] (Homo sapiens, MDA-MB-231, 48 h, read-out: IC50-48), 63.2 ± 10.6 µM. Also, the “concentration from which a significant cytotoxic effect is seen” value in the data set with MDA-MB-231 cells [2] (MDA-MB-231, 48 h) is no less than 10 µM. In the data set with MDA-MB-231 cells [3], the “percentage of cells in G2/M” value stood at 8.2%. In addition, the “percentage of cells in S phase” value in the data set on MDA-MB-231RR cells is listed as 26.4%. Besides, the “reduction in pAKT” value is reported as “up to 70%” in data set [4], greater than 70% in data set [5] and 25% in data set [6]. In addition, the “reduction in pERK” value in data set [4] was “up to 70%”; in data set [5] it was 35%; in data set [6] it was 40%. Moreover, the “reduction in tumor size” value in [7] is given as 41.6%. For the same compound, the “reduction in Ras-GTP levels” value in [8] is listed as “over 80%”. Further, the “decrease in Ras-GTP levels” value in data set [9] is reported as “over 60%”.
In the case of `CN(CC(=O)NC1CCOc2ccccc21)Cc1cccc(Cl)c1` (centres unmarked) [C14, 2-[(3-chlorophenyl)-methyl-methyl-amino]-N-croman-4-yl-acetamide], in data set [1], the “reduction in cyclin D1 protein” value is 40%. Moreover, the “reduction in GSK3β” value in data set [1] is on record as 10%. Besides, the half-maximal inhibitory concentration (IC50) came to 91.1 ± 3.9 µM in the data set on MDA-MB-231 cells [2] (MDA-MB-231, 24 h, read-out: IC50-24) and 60 ± 6.6 µM with MDA-MB-231 cells [2] (MDA-MB-231, 48 h, read-out: IC50-48). For the same compound, the “concentration from which a significant cytotoxic effect is seen” value in the data set with MDA-MB-231 cells [2] (MDA-MB-231, 48 h) is no less than 10 µM. In addition, the “percentage of cells in G2/M” value in the data set on MDA-MB-231 cells [3] came out at 6.4%. Also, the “percentage of cells in S phase” value with MDA-MB-231RR cells was 20.7%. The “reduction in pAKT” value is recorded as “up to 60%” in [4], greater than 70% in data set [5] and 25% in data set [6]. Besides, the “reduction in pERK” value in data set [4] is given as “up to 70%”; in data set [5], “approximately 30%”; in data set [6], 40%. Besides, the “reduction in tumor size” value in data set [7] amounted to 40.0%. For the same compound, the “reduction in Ras-GTP levels” value in data set [8] is recorded as 20%. In [9], the “decrease in Ras-GTP levels” value is “approximately 20%”.
